According to paper PMC6143625, “A high throughput screen for next-generation leads targeting malaria parasite transmission” (Nature Communications, 2018):

Columns and labels:
HepG2 human cells = system: HepG2 human cells; design: method as in http://dx.doi.org/10.6019/CHEMBL3507680; conditions: ref http://dx.doi.org/10.6019/CHEMBL3507680; cited from earlier work
[1] = system: Stage IV–V 3D7 gametocytes; assay: Gametocytocidal ATP-based bioluminescence assay (GC-ATP); format: cell-based, Plasmodium falciparum 3D7; conditions: Plasmodium falciparum, 3D7; 48h incubation; read-out: Pf late stage gametocyte (ATP depletion) IC50
Method: The metabolic viability of late stage gametocytes was determined using a gametocyte ATP bioluminescence assay. Stage IV–V 3D7 gametocyte cultures were double-purified by density gradient sedimentation over NycoPrep® followed by magnetic isolation. Then, parasites (50 µl per well containing 12,500 gametocytes) were added to compound pre-dispensed 384-well plates (781091, Greiner) and incubated at 37 °C for 48 h under 5% CO2/3% O2/92% N2. BacTiter-Glo® kit (G8231, Promega) was used to determine the ATP levels of viable parasites according to manufacturer’s instructions. After reagent addition (50 µl per well), luminescence of the plates was measured using a microplate reader (HTS counter Victor, Wallac).

[2] = system: P. falciparum male gametocytes; assay: Pf DGFA wash-out format, male readout; format: cell-based; conditions: Plasmodium falciparum; 48h preincubation/wash-out
[3] = system: P. falciparum female gametocytes; assay: Pf DGFA wash-out format, female readout; format: cell-based; conditions: Plasmodium falciparum; 48h preincubation/wash-out
[4] = system: P. falciparum male gamete formation; assay: Pf DGFA add-in format, male readout; format: cell-based, Plasmodium falciparum; conditions: for IC50: Plasmodium falciparum, 0h preincubation/add-in
Method: (§1) In profiling mode, the Pf DGFA was performed in 96-well plates[23] in wash-out and add-in formats to aid manual manipulation steps. In the wash-out format, gametocytes were incubated for 24 h with test compounds in round-bottomed 96 well plates and then culture medium replaced three times over 6 h, to remove as much of the compound as possible from the well. […] In add-in format, gametocytes were added directly to flat-bottomed 96-well plates containing test compounds, ookinete medium and anti-Pfs25.

[5] = system: P. falciparum male gametogenesis; assay: Phenotypic immunofluorescence assay of male gamete formation; format: cell-based, Plasmodium falciparum; conditions: 10 µM, 24 h treatment, 0–20 min post induction
Method: In vitro evolution followed by whole-genome analysis is the primary approach currently used for understanding how compounds act in malaria parasites. As it is not currently feasible to generate resistant mutants to compounds that are only active in the gametocyte stage (resistance generation requires extensive rounds of replication in the presence of compound), phenotypic immunofluorescence assays were performed to evaluate compound activity on male gamete formation. Gametocytes treated with 10 µM of each compound were sampled at 0, 2, 3, 4, 6, 8, 10, and 20 min post induction of gamete formation before imaging (Fig. 4). Individual male cells were then extracted from the images and analysed for shape and haploid chromosome number/DNA content to quantitatively measure the progression of DNA replication (n = 198–668 cells) (Fig. 5a).
Day 14 gametocyte culture was divided into 4 ml aliquots and treated either with DMSO or 10 µM test compound. After 24 h, 500 µl aliquots of the non-activated gametocytes were fixed in an equal volume of 8% paraformaldehyde (PFA) warmed to 37 °C to generate Time = 0 min (t = 0) samples. Gamete formation was induced in the remainder of the cultures by cooling to RT and addition of 500 µl ookinete medium. At t = 2, 3, 4, 6, 8, 10, and 20 min 500 µl of culture was removed and immediately fixed in equal volume of 8% PFA at room temperature for 15 min. Fixed cells were diluted in PBS and allowed to settle onto poly-L-lysine-coated glass coverslips overnight. The next day, cells were washed in PBS, permeabilized in 0.1% Triton X-100 and blocked in PBS + 10% FBS. Cells were stained with mouse anti-alpha tubulin (Sigma) clone DM1A (1:500 dilution) and rabbit anti-Glycophorin A (Abcam) clone EPR8200 (1:1000 dilution). Staining was visualised with anti-mouse […] and anti-rabbit Alexa555 (Thermo-Fisher) both at 1:1000 dilution. Coverslips were mounted onto glass slides with VectaShield mountant (Vector Laboratories) containing 4′,6-diamidino-2-phenylindole (DAPI) to visualise cellular DNA. Cells were imaged at random (n = 195–668 cells per test compound) using a Nikon Ti-E widefield microscope using a × 100 objective lens and taken in 0.2 µm slice z-stack images to capture the whole cell. All images were converted to maximum intensity projections in NIS Elements v4.20 and all further image processing performed in ICY. Individual cells were manually selected and automatically extracted from each image using the Active Contours plugin gated to the tubulin staining. Using the ROI Statistics plugin, the following parameters were calculated for each cell and exported to MS Excel: Cell area, Cell roundness, Cell elongation, and Average intensity of blue channel (DNA). […] Outlier cells from the curve were all exflagellating (Supplementary Fig. 6). These two parameters were combined as a ratio of roundness:elongation to produce the parameter Cell shape. Cellular DNA content was estimated by multiplying the average pixel intensity of the blue channel (after subtracting the background intensity of an empty area in the same parent image) with the total cell area.

[6] = system: P. falciparum female gamete formation; assay: Pf DGFA add-in format, female readout; format: cell-based; conditions: Plasmodium falciparum; 0h preincubation/add-in
Method: as §1

NF54 stage V gametocytes = assay: Gametocytocidal MitoTracker-based viability assay (SaLSSA); format: cell-based, Plasmodium falciparum NF54; conditions: Plasmodium falciparum, NF54; 72h incubation; read-out: Pf Stage V GCT (mitotracker assay) IC50
Method: As another independent assessment of the metabolic viability of compound-treated stage V gametocytes, the Saponin-lysis Sexual Stage Assay (SaLSSA) was employed. A volume of 100 nl of test compounds were pre-dispensed in 384-well plates (781091-2B, Greiner) in 12-point dose response (25 µM to 1.41 × 10^−4 µM), prior to the addition of synchronous NF54 stage V gametocytes (40 µl at 0.70% gametocytaemia). Assay plates were then incubated for 72 h in a low oxygen environment (92% N2, 5% CO2, 3%O2) before a 10 µl MitoTracker Red CMXRos (2.5 µM) and saponin solution (0.13%w/v) was added. Plates were returned to 37 °C for 1 h to allow for complete red blood cell lysis, after which viable gametocytes were detected using an Operetta high-content imaging system. Analysis was performed using the Harmony package software, with potency calculated relative to puromycin (positive control) and DMSO (negative control).

[7] = system: P. falciparum stage V male gametocytes (male gamete formation); assay: P. falciparum dual gamete formation assay (Pf DGFA), male readout (exflagellation), 48 h carry-over format; format: cell-based, Plasmodium falciparum NF54; conditions: Plasmodium falciparum, 24h preincubation/carry-over

**Q.** For `O=S(=O)(NCC1(O)CCOc2ccccc21)c1ccc(Br)s1` (stereo not shown) [DDD01035881], which “%Inh HepG2 @10uM” value (HepG2 human cells) is on record?
**A.** The value was 3.29%.

**Q.** What about the IC50 [1] of the same compound?
**A.** The IC50 was over 10 µM.

**Q.** And the IC50 [2]?
**A.** Its IC50 is over 12.5 µM.

**Q.** What about the IC50 [3] of the same compound?
**A.** Its IC50 is over 12.5 µM.

**Q.** What about the IC50 [4] of the same compound?
**A.** The IC50 was 0.19 µM.

**Q.** And the “phenotype of male gametogenesis (IFA)” value [5]?
**A.** The value was “only a few cells replicated their DNA and none exflagellated”.

**Q.** And the IC50 [6]?
**A.** Its IC50 is over 10 µM.

**Q.** What about the IC50 (NF54 stage V gametocytes) of the same compound?
**A.** The IC50 was over 25 µM.

**Q.** What about the IC50 [7] of the same compound?
**A.** Its IC50 is 0.26 µM.

**Q.** Which “%Inh HepG2 @10uM” value (HepG2 human cells) does the source give for `OC1(CN2CCC(Oc3cccc(C(F)(F)F)c3)CC2)CCNC1` (stereo not shown) [DDD01245291] here?
**A.** The value was -7.31%.

**Q.** And the IC50 [1]?
**A.** The IC50 was over 10 µM.

**Q.** And the IC50 [2]?
**A.** Its IC50 is 0.68 µM.

**Q.** And the IC50 [3]?
**A.** The IC50 was 1.51 µM.

**Q.** And the IC50 [4]?
**A.** Its IC50 is over 10 µM.

**Q.** And the “phenotype of male gametogenesis (IFA)” value [5]?
**A.** The value was “arrested after rounding up”.

**Q.** And the IC50 [6]?
**A.** Its IC50 is over 10 µM.

**Q.** And the IC50 (NF54 stage V gametocytes)?
**A.** The IC50 was over 12.5 µM.

**Q.** And the IC50 [7]?
**A.** The IC50 was 5.99 µM.

**Q.** For `CC(C)CN1CCn2nc(CNc3ncnc4[nH]ccc34)cc2C1` [DDD01249504], which “%Inh HepG2 @10uM” value (HepG2 human cells) is on record?
**A.** Its value is 7.26%.

**Q.** What about the IC50 [1] of the same compound?
**A.** The IC50 was over 10 µM.

**Q.** And the IC50 [2]?
**A.** The IC50 was 2.74 µM.

**Q.** And the IC50 [3]?
**A.** The IC50 was over 25 µM.

**Q.** And the IC50 [4]?
**A.** The IC50 was over 10 µM.

**Q.** What about the “phenotype of male gametogenesis (IFA)” value [5] of the same compound?
**A.** Its value is “the second and third divisions were delayed with a smaller proportion of cells reaching 8n”.

**Q.** And the IC50 [6]?
**A.** The IC50 was over 10 µM.

**Q.** And the IC50 (NF54 stage V gametocytes)?
**A.** Its IC50 is over 25 µM.

**Q.** What about the IC50 [7] of the same compound?
**A.** Its IC50 is 1.83 µM.

**Q.** Which “%Inh HepG2 @10uM” value (HepG2 human cells) does the source give for `Cc1ccc(-c2cc(C(=O)NCCC3=CCCCC3)[nH]n2)o1` [DDD01255968] here?
**A.** The value was -10.6%.

**Q.** And the IC50 [1]?
**A.** Its IC50 is over 10 µM.

**Q.** What about the IC50 [2] of the same compound?
**A.** The IC50 was 2.19 µM.

**Q.** What about the IC50 [3] of the same compound?
**A.** Its IC50 is over 12.5 µM.

**Q.** What about the IC50 [4] of the same compound?
**A.** Its IC50 is 0.32 µM.

**Q.** And the “activity in the add-in format” value ([4]; profiling)?
**A.** Its value is “active”.

**Q.** What about the “phenotype of male gametogenesis (IFA)” value [5] of the same compound?
**A.** The value was “did not replicate their DNA and remained with 1n genome copies”.

**Q.** And the IC50 [6]?
**A.** Its IC50 is over 10 µM.

**Q.** And the IC50 (NF54 stage V gametocytes)?
**A.** Its IC50 is over 25 µM.

**Q.** And the IC50 [7]?
**A.** The IC50 was 1.17 µM.
